Measured values taken from publication PMC9889419 (Pharmacological Reports, 2022).
Structures can show the parent of a compound that is named as a salt.

Columns and labels:
5-HT7 = 5-HT7 (Homo sapiens, UniProt P34969); experiment: Radioligand binding
Experimental: Radioligand binding. Radioligand binding assays were performed at Eurofins CEREP (France). The results are expressed as a percent of control specific binding (measured specific binding*100/control specific binding) and as a percent inhibition of control specific binding (100-(measured specific binding*100)/control specific binding) obtained in the presence of the test compounds. The IC50 values (concentration causing a half-maximal inhibition of control specific binding) and Hill coefficients (nH) were determined by non-linear regression analysis of the competition curves generated with mean replicate values using Hill equation curve fitting (Y = D + [A-D]/[1 + (C/C50)^nH], where Y = specific binding, A = left asymptote of the curve, D = right asymptote of the curve, C = compound concentration, C50 = IC50, and nH = slope factor). This analysis was performed using software developed at Cerep (Hill software) and validated by comparison with data generated by the commercial software SigmaPlot® 4.0 for Windows® (© 1997 by SPSS Inc.). The inhibition constants (Ki) were calculated using the Cheng Prusoff equation (Ki = IC50/[1 + L/KD], where L = concentration of radioligand in the assay, and KD = affinity of the radioligand for the receptor). A scatchard plot is used to determine the Kd.

mice [1] = experiment: Subcutaneous pentylenetetrazole seizure test (ScPTZ, SCMET); format: in vivo; conditions: ip, […]
Experimental: (§1) The assays were carried out within the Epilepsy Therapy Screening Program (ETSP, previously known as the Anticonvulsant Screening Program, ASP), Epilepsy Branch, National Institute of Neurological and Communicative Disorders and Stroke, National Institutes of Health in Rockville, MD, USA [23].

[2] = system: organotypic hippocampal slice cultures; experiment: Neuroprotection primary screen, excitotoxin kainic acid; format: cell-based; conditions: kainic acid 20 µM, 10 and 100 µM compound
Experimental: Compound 2 : ADD t{umber, b890s0 Batch: lB- Date Compteted. Ect\,t""201 0 […]
Excilotoxin: llGinic ncia Insult Duration: l+ Hours Solvent: […]
Ai lxn zopr.,r aZ lxa zopr,r Ae lre zoprta
Bz lr<n zopn er ]ra zopr',t l:+aot a r ooprt/|*aa9o8o l oopM lgaeota t oot,tr,t*gB9o8o t oopM […]
The "Primary screen Experiment" is a qualitative assessment of the ability of a compound to prevent excitotoxic cell dearh. organotypic hippocampal slice clltures are treated with N-methyl-D-aipartate lNuoa; o; kainic acid (KA) to induce neuronal cell death. Propidium iodide (Pl), a membrane-impermeant compound, is included in all welts of the culture plate.
Dying cells have compromised cell membranes, thus Pl may diffuse into the cell, intercalate with DNA and ftuoresce. Thus, the intensity of the Pl fluorescence is proportional to the amount of cell death in the individual slices. Hippocampal slice cultures are treated with the excitotoxin alone, or where indicated above, with the excitotoxin and either one eltu/o investigational compounds at the concentrations indicated. lf neuroprotection occurs as a consequence of the added […]
been treated with the excitotoxin alone.
(1 picture or pasted object on this page, not shown here)

rats = experiment: Rotarod / TOX (neurotoxicity); conditions: for Rotarod TD50: rats
Experimental: as §1
The obtained compounds were screened for antiseizure activity and neurotoxicity in vivo within the Epilepsy Therapy Screening Program (ETSP, previously known as the Anticonvulsant Screening Program, ASP), Epilepsy Branch, National Institute of Neurological and Communicative Disorders and Stroke, National Institutes of Health in Rockville, MD, USA [23].

mice [3] = experiment: Writhing test; format: in vivo; conditions: 30 mg/kg
Experimental: Inflammatory acute pain—writhing test. In this test, mice were placed individually into glass beakers and were allowed to habituate for the next 30 min. Then, each mouse was injected with tested compound, dissolved in saline (at a dose 30 mg/kg) or vehicle, and then placed back into the glass beaker for 30 min. To induce inflammatory pain, 0.9% acetic acid solution (Polskie Odczynniki Chemiczne, Poland) prepared in saline was injected by the intraperitoneal route. Mice were placed in the beakers again and were observed continuously for the next 30 min. Stereotypical writhes (lengthwise constrictions of the torso with a concomitant concave arching of the back) were counted over this period in drug-treated and control mice.

[4] = Forced degradation studies (HPLC); format: physicochemical
Experimental: HPLC conditions and equipment. The liquid chromatography system HITACHI High-Technologies Corporation (Tokyo, Japan) equipped with a solvent delivery pump (L-2130), a degasser, an autosampler (L-2200), a photodiode array detector (L-2455) and a column oven (L-2350) was used. […] The injection volume was 20 µL. Based on the registered absorption spectrum detection wavelength was selected as 230 nm. The analysis time was 15 min.
Irradiation conditions. Irradiation was conducted in a climatic chamber KBF-ICH 240 APT.lineTM (Binder GmbH, Tuttlingen, Germany) at 25 °C and 60% humidity using UVA radiation (320–400 nm) with maximum emission at 365 nm. The intensity of radiation was determined using a radiometer type VLX-3 W, Vilber Lourmat, with a CX-365 sensor, to be each time of […]. The distance between the samples and the radiation source was 13 cm.
Degradation in acidic solution. […] 8 mL of the examined solution was transferred to a glass vial and heated in an oven at 70 °C. The sample volume of 0.5 mL was taken and diluted with 0.5 mL of water. The solution was analyzed three times by HPLC method.
Degradation in basic solution. […] 4 mL of examined solution was transferred to glass vials of 8 mL capacity and heated in an oven at 70 °C. The volume of 0.5 mL was taken and diluted with 0.5 mL of 0.5 M HCl. The solution was analyzed three times by HPLC method.
Degradation in phosphate buffer at pH = 7.0. […] The volume of 8 mL of examined solution was transferred to glass vials of 8 mL capacity and stored in a dark place at 25 °C or heated in an oven at 70 °C. The volume of 0.5 mL of solution was taken and diluted with 0.5 mL of water. The solution was analyzed by HPLC method.
Degradation in the presence of oxidative agent. […] The samples were stored at 25 °C. The volume of 0.5 mL of solution was taken and diluted with 0.5 mL of water. The solution was analyzed three times by HPLC method. […] The volume of 8 mL of examined solution was transferred to glass vials of 8 mL capacity and heated in an oven at 40 °C. The volume of 0.5 mL of solution was taken and diluted with 0.5 mL of water. The solution was analyzed by HPLC method.
Degradation in the presence of reducing agent. […] 8 mL of the examined solution was transferred to 8 mL glass vials and stored at 25 °C and 40 °C. The volume of 0.5 mL of solution was taken and diluted with 0.5 mL of water. The solution was analyzed three times by HPLC method.
Photodegradation under UV irradiation. […] 2 mL of the examined solution was transferred to a quartz Petri-dishes with diameter 4 cm and sealed with parafilm. Dark control samples were prepared in the same way, but they were secured with aluminum foil. The examined samples and the dark control samples were placed in a climatic chamber at […] and humidity 60% and irradiated for 96 h. The volume of 0.5 mL of solution was taken to the vials and the solution was analyzed by HPLC method.

5-HT7, sequence (P34969 whole entry): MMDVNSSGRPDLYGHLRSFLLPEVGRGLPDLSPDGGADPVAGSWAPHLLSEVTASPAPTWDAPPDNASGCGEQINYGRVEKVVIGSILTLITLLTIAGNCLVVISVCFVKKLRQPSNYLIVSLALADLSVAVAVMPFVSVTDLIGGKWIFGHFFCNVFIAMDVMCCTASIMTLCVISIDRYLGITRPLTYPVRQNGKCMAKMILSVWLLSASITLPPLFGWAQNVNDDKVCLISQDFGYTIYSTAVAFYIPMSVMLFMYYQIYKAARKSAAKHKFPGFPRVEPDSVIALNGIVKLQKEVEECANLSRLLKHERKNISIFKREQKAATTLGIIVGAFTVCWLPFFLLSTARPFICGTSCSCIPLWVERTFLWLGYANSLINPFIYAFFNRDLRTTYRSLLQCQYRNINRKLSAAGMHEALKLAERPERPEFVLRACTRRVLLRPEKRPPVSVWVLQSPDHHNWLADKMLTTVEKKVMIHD

With CCC(CO)NCCOc1c(C)cccc1Cl (stereo not drawn) [Compound 4, R,S-2-((2-(2-chloro-6-methylphenoxy)ethyl)amino)butan-1-ol] the “% of control specific binding” value (5-HT7; 100 μM) was 26.4%, the “SCMET ED50” value (mice [1]; mice) was greater than 64 mg/kg and the “Test Result (neuroprotection)” value [2] was “No Neuroprotection”. For the same molecule, the “Rotarod TD50” value (rats; ip, listed as 348014) was less than 50 mg/kg, the “Rotarod TD50” value (rats; po) was greater than 240 mg/kg and the “TOX TD50” value (rats; report of 16-Aug-2004 (rats, po)) was greater than 60 mg/kg.

In the case of CCC(CO)NCCOc1c(C)cccc1Cl (stereo not drawn) [KM-408, R,S-2-((2-(2-chloro-6-methylphenoxy)ethyl)amino)butan-1-ol hydrochloride], the IC50 (5-HT7) is reported as 18 µM, the Ki (5-HT7) is reported as 6.5 µM and the remaining activity at 0.01 µM (5-HT7; 0.01 μM, read-out: % of control specific binding) is reported as 107%. The remaining activity at 0.1 µM (5-HT7; 0.1 μM, read-out: % of control specific binding) was 106%, the remaining activity at 1 µM (5-HT7; 1 μM, read-out: % of control specific binding) was 105% and the remaining activity at 10 µM (5-HT7; 10 μM, read-out: % of control specific binding) was 66.1%. The remaining activity at 100 µM (5-HT7; 100 μM, read-out: % of control specific binding) was 20.2%, the ED50 (mice [1]; Mus musculus, read-out: SCMET ED50) was greater than 100 mg/kg and the “effect on acetic acid-induced writhing” value (mice [3]) was “not significantly effective”. The degradation ([4]; 0.5 M HCl, 70 °C, 232 h) was 1.65%, the degradation ([4]; 0.5 M NaOH, 70 °C, 232 h) was 2.02% and the degradation ([4]; CuSO4, 192 h) was 1.65%. For the same molecule, the degradation products ([4]; H2O2, 168 h) was 1.84%, the degradation ([4]; phosphate buffer pH 7.0, 25 °C, 240 h) was 1.52% and the degradation ([4]; phosphate buffer pH 7.0, 70 °C, 168 h) was 1.96%. For the same molecule, the degradation ([4]; photodegradation, 96 h) was 1.43%, the degradation ([4]; reducing agent, 40 °C, 168 h) was 1.50% and the “Test Result (neuroprotection)” value ([2]; listed as 367061) was “No neurop rotection observed”.
